According to patent US20110218199A1, “PYRIDONEAMIDE DERIVATIVES, THEIR MANUFACTURE AND USE AS PHARMACEUTICAL AGENTS” (priority 2007, published 2011):
pIC50: −log10 of the molar value.

Tested on: HCT 116 cells
Assay: CellTiter-Glo assay in HCT 116 cells (antiproliferative activity)
Type: cell-based
Conditions: Homo sapiens, HCT-116, 120 h, CellTiter-Glo cell viability, HCT 116 human colon carcinoma, 5 days (120 h) incubation
Description: Antiproliferative Activity:
CellTiter-Glo™ Assay in HCT 116 Cells:
The CellTiter-Glo™ Luminescent Cell Viability Assay (Promega) is a homogeneous method of determining the number of viable cells in culture based on quantitation of the ATP present, which signals the presence of metabolically active cells.
HCT 116 cells (human colon carcinoma, ATCC-No. CCl-247) were cultivated in RPMI 1640 medium with GlutaMAX• I (Invitrogen, Cat-No. 61870-010), 5% Fetal Calf Serum (FCS, Sigma Cat-No. F4135 (FBS)); 100 Units/ml penicillin/100 μg/ml streptomycin (=Pen/Strep from Invitrogen Cat. No. 15140). For the assay the cells were seeded in 384 well plates, 1000 cells per well, in the same medium. The next day the test compounds were added in various concentrations ranging from 30 μM to 0.0015 μM (10 concentrations, 1:3 diluted). After 5 days the CellTiter-Glo™ assay was done according to the instructions of the manufacturer (CellTiter-Glo™ Luminescent Cell Viability Assay, from Promega). In brief: the cell-plate was equilibrated to room temperature for approximately 30 minutes and than the CellTiter-Glo™ reagent was added. The contents were carefully mixed for 15 minutes to induce cell lysis. After 45 minutes the luminescent signal was measured in Victor 2, (scanning multiwell spectrophotometer, Wallac).
1st. Day: • Medium: RPMI 1640 with GlutaMAX™ I (Invitrogen, Cat-Nr. 61870), 5% FCS (Sigma Cat.-No. F4135), Pen/Strep (Invitrogen, Cat No. 15140). • HCT116 (ATCC-No. CC1-247): 1000 cells in 60 μl per well of 384 well plate (Greiner 781098, μClear-plate white) • After seeding incubate plates 24 h at 37° C., 5% CO2
2nd. Day: Induction (Treatment with Compounds, 10 Concentrations):
In order to achieve a final concentration of 30 μM as highest concentration 3.5 μl of 10 mM compound stock solution were added directly to 163 μl media. Then step e) of the dilution procedure described below, was followed.
In order to achieve the second highest to the lowest concentrations, a serial dilution with dilution steps of 1:3 was followed according to the procedure (a-e) as described here below: • a) for the second highest concentration add 10 μl of 10 mM stock solution of compound to 20 μl dimethylsulfoxide (DMSO) • b) dilute 8×1:3 (always 10 μl to 20 μl DMSO) in this DMSO dilution row (results in 9 wells with concentrations from 3333.3 μM to 0.51 μM) • c) dilute each concentration 1: 47.6 (3.5 μl compound dilution to 163 μl media) • d) add 10 μl of every concentration to 60 μl media in the cell plate resulting in final concentration of DMSO: 0.3% in every well and resulting in 10 final concentration of compounds ranging from 30 μM to 0.0015 μM. • Each compound is tested in triplicate. • Incubate 120 h (5 days) at 37° C., 5% CO2 […]
Add 30 μl CellTiter-Glo™ Reagent (prepared from CellTiter-Glo™ Buffer and CellTiter-Glo™ Substrate (lyophilized) purchased from Promega) per well, shake 15 minutes at room temperature incubate further 45 minutes at room temperature without shaking
Victor 2 scanning multiwell spectrophotometer (Wallac), Luminescence mode (0.5 sec/read, 477 nm) Determine IC50 using a non-linear curve fit (XLfit software (ID Business Solution Ltd., Guilford, Surrey, UK))

Row | Structure (SMILES) | pIC50
1 | O=C(Nc1cccc(N2CCCC2)c1)c1c(NCCc2cccc(Cl)c2)cc[nH]c1=O [Example 2e, 4-[2-(3-Chloro-phenyl)-ethylamino]-2-oxo-1,2-dihydro-pyridine-3-carboxylic acid (3-pyrrolidin-1-yl-phenyl)-amide] | 4.82 to 6.30
2 | CN1CCN(c2ccc(NC(=O)c3c(NCc4ccccn4)cc[nH]c3=O)cc2)CC1 [Example 2s, 2-Oxo-4-[(pyridin-2-ylmethyl)-amino]-1,2-dihydro-pyridine-3-carboxylic acid [4-(4-methyl-piperazin-1-yl)-phenyl]-amide] | 4.82 to 6.30
3 | O=C(Nc1cccc(N2CCCCC2)c1)c1c(NCc2ccccn2)cc[nH]c1=O [Example 2o, 2-Oxo-4-[(pyridin-2-ylmethyl)-amino]-1,2-dihydro-pyridine-3-carboxylic acid (3-piperidin-1-yl-phenyl)-amide] | 4.82 to 6.30
4 | CN1CCN(c2cccc(NC(=O)c3c(NCCc4ccccc4)cc[nH]c3=O)c2)CC1 [Example 4v, 2-Oxo-4-phenethylamino-1,2-dihydro-pyridine-3-carboxylic acid [3-(4-methyl-piperazin-1-yl)-phenyl]-amide] | 4.82 to 6.30
5 | COc1ccccc1CCNc1cc[nH]c(=O)c1C(=O)Nc1cccc(N2CCN(C)CC2)c1 [Example 4ab, 4-[2-(2-Methoxy-phenyl)-ethylamino]-2-oxo-1,2-dihydro-pyridine-3-carboxylic acid [3-(4-methyl-piperazin-1-yl)-phenyl]-amide] | 4.82 to 6.30
6 | O=C(Nc1cccc(N2CCCCC2)c1)c1c(NCCc2cccc(Cl)c2)cc[nH]c1=O [Example 2n, 4-[2-(3-Chloro-phenyl)-ethylamino]-2-oxo-1,2-dihydro-pyridine-3-carboxylic acid (3-piperidin-1-yl-phenyl)-amide] | 4.82 to 6.30
7 | CN1CCN(c2ccc(NC(=O)c3c(NCc4ccccn4)cc[nH]c3=O)cc2F)CC1 [Example 2k, 2-Oxo-4-[(pyridin-2-ylmethyl)-amino]-1,2-dihydro-pyridine-3-carboxylic acid [3-fluoro-4-(4-methyl-piperazin-1-yl)-phenyl]-amide] | 4.82 to 6.30
8 | Cc1cccc(CCNc2cc[nH]c(=O)c2C(=O)Nc2cccc(N3CCN(C)CC3)c2)c1 [Example 4aa, 2-Oxo-4-(2-m-tolyl-ethylamino)-1,2-dihydro-pyridine-3-carboxylic acid [3-(4-methyl-piperazin-1-yl)-phenyl]-amide] | 4.82 to 6.30
9 | CN1CCN(c2ccc(NC(=O)c3c(NC[C@@H](O)c4ccccc4)cc[nH]c3=O)cc2F)CC1 [Example 4c, 4-[(S)-2-Hydroxy-2-phenyl-ethylamino]-2-oxo-1,2-dihydro-pyridine-3-carboxylic acid [3-fluoro-4-(4-methyl-piperazin-1-yl)-phenyl]-amide] | 4.82 to 6.30
10 | COc1ccc(NC(=O)c2c(NC[C@@H](O)c3cccc(Cl)c3)cc[nH]c2=O)cc1N1CCN(C)CC1 [Example 4i, 4-[(S)-2-(3-Chloro-phenyl)-2-hydroxy-ethylamino]-2-oxo-1,2-dihydro-pyridine-3-carboxylic acid [4-methoxy-3-(4-methyl-piperazin-1-yl)-phenyl]-amide] | 4.82 to 6.30
11 | CC(=O)N1CCN(c2ccc(NC(=O)c3c(NC[C@@H](O)c4cccc(Cl)c4)cc[nH]c3=O)cc2C(F)(F)F)CC1 [Example 4d, 4-[(S)-2-(3-Chloro-phenyl)-2-hydroxy-ethylamino]-2-oxo-1,2-dihydro-pyridine-3-carboxylic acid [4-(4-acetyl-piperazin-1-yl)-3-trifluoromethyl-phenyl]-amide] | 5.90
12 | CN1CCN(c2ccc(NC(=O)c3c(NCCc4cccc(Cl)c4)cc[nH]c3=O)cc2F)CC1 [Example 4a, 4-[2-(3-Chloro-phenyl)-ethylamino]-2-oxo-1,2-dihydro-pyridine-3-carboxylic acid [3-fluoro-4-(4-methyl-piperazin-1-yl)-phenyl]-amide] | 4.82 to 6.30
13 | CN1CCN(c2ccc(NC(=O)c3c(NCCc4cccc(Cl)c4)cc[nH]c3=O)cc2)CC1 [Example 4b, 4-[2-(3-Chloro-phenyl)-ethylamino]-2-oxo-1,2-dihydro-pyridine-3-carboxylic acid [4-(4-methyl-piperazin-1-yl)-phenyl]-amide] | 4.82 to 6.30
14 | CN1CCN(c2cccc(NC(=O)c3c(NCCc4c[nH]c5ccccc45)cc[nH]c3=O)c2)CC1 [Example 4ae, 4-[2-(1H-Indol-3-yl)-ethylamino]-2-ozo-1,2-dihydro-pyridine-3-carboxylic acid [3-(4-methyl-piperazin-1-yl)-phenyl]-amide] | 4.82 to 6.30
15 | CSc1cccc(NC(=O)c2c(NC[C@@H](O)c3cccc(Cl)c3)cc[nH]c2=O)c1 [Example 4q, 4-[(S)-2-(3-Chloro-phenyl)-2-hydroxy-ethylamino]-2-oxo-1,2-dihydro-pyridine-3-carboxylic acid (3-methylsulfanyl-phenyl)-amide] | 4.82 to 6.30
16 | O=C(Nc1cccc(N2CCOCC2)c1)c1c(NC[C@@H](O)c2cccc(Cl)c2)cc[nH]c1=O [Example 4m, 4-[(S)-2-(3-Chloro-phenyl)-2-hydroxy-ethylamino]-2-oxo-1,2-dihydro-pyridine-3-carboxylic acid (3-morpholin-4-yl-phenyl)-amide] | 4.82 to 6.30
17 | COc1cccc(CCNc2cc[nH]c(=O)c2C(=O)Nc2cccc(N3CCN(C)CC3)c2)c1 [Example 4y, 4-[2-(3-Methoxy-phenyl)-ethylamino]-2-oxo-1,2-dihydro-pyridine-3-carboxylic acid [3-(4-methyl-piperazin-1-yl)-phenyl]-amide] | 4.82 to 6.30

More lines, now with the values ahead:

Row | pIC50 | Structure (SMILES)
18 | 4.82 to 6.30 | CC(CNc1cc[nH]c(=O)c1C(=O)Nc1cccc(CN2CCCCC2)c1)c1ccccc1 (stereo not shown) [Example 6u, 2-Oxo-4-(2-phenyl-propylamino)-1,2-dihydro-pyridine-3-carboxylic acid (3-piperidin-1-ylmethyl-phenyl)-amide]
19 | 4.82 to 6.30 | CSc1cccc(NC(=O)c2c(NCc3ccccn3)cc[nH]c2=O)c1 [Example 6s, 2-Oxo-4-[(pyridin-2-ylmethyl)-amino]-1,2-dihydro-pyridine-3-carboxylic acid (3-methylsulfanyl-phenyl)-amide]
20 | 4.82 to 6.30 | O=C(Nc1cccc(CN2CCCCC2)c1)c1c(NCCc2ccccc2)cc[nH]c1=O [Example 6t, 2-Oxo-4-phenethylamino-1,2-dihydro-pyridine-3-carboxylic acid (3-piperidin-1-ylmethyl-phenyl)-amide]
21 | 4.82 to 6.30 | COc1ccc(NC(=O)c2c(NCCc3cccc(Cl)c3)cc[nH]c2=O)cc1N1CCN(C)CC1 [Example 6o, 4-[2-(3-Chloro-phenyl)-ethylamino]-2-oxo-1,2-dihydro-pyridine-3-carboxylic acid [4-methoxy-3-(4-methyl-piperazin-1-yl)-phenyl]-amide]
22 | 4.82 to 6.30 | COc1ccc(NC(=O)c2c(NC3CCCCC3)cc[nH]c2=O)cc1N1CCN(C)CC1 [Example 6m, 4-Cyclohexylamino-2-oxo-1,2-dihydro-pyridine-3-carboxylic acid [4-methoxy-3-(4-methyl-piperazin-1-yl)-phenyl]-amide]
23 | 4.82 to 6.30 | COc1ccc(NC(=O)c2c(NCCc3ccccc3)cc[nH]c2=O)cc1N1CCN(C)CC1 [Example 6i, 2-Oxo-4-phenethylamino-1,2-dihydro-pyridine-3-carboxylic acid [4-methoxy-3-(4-methyl-piperazin-1-yl)-phenyl]-amide]
24 | 4.82 to 6.30 | CC(CNc1cc[nH]c(=O)c1C(=O)Nc1ccc(N2CCN(C)CC2)cc1)c1ccccc1 (stereo not shown) [Example 6ae, 2-Oxo-4-(2-phenyl-propylamino)-1,2-dihydro-pyridine-3-carboxylic acid [4-(4-methyl-piperazin-1-yl)-phenyl]-amide]
25 | 4.82 to 6.30 | CN1CCN(c2ccc(NC(=O)c3c(NCCc4ccccc4)cc[nH]c3=O)cc2)CC1 [Example 6ad, 2-Oxo-4-phenethylamino-1,2-dihydro-pyridine-3-carboxylic acid [4-(4-methyl-piperazin-1-yl)-phenyl]-amide]
